This note sets out measurements from patent US9056874B2, “Complement pathway modulators and uses thereof” (NOVARTIS AG, priority 2012, dated 2015).

The experiment addresses factor B (Homo sapiens, UniProt P00751). The experiment is described as follows: factor B inhibition assay of Biological Example 1. Type of experiment: biochemical. Also on record: CVF-Bb complex prepared from purified cobra venom factor (1 μM), recombinant human complement factor B; made in house; host or cells: drosophila cells (factor B); E. coli (factor D used to form the complex). To be noted: IC50 (nM), assay of Biological Example 1 (Table 1).

factor B, sequence (P00751 260-764 limits assumed): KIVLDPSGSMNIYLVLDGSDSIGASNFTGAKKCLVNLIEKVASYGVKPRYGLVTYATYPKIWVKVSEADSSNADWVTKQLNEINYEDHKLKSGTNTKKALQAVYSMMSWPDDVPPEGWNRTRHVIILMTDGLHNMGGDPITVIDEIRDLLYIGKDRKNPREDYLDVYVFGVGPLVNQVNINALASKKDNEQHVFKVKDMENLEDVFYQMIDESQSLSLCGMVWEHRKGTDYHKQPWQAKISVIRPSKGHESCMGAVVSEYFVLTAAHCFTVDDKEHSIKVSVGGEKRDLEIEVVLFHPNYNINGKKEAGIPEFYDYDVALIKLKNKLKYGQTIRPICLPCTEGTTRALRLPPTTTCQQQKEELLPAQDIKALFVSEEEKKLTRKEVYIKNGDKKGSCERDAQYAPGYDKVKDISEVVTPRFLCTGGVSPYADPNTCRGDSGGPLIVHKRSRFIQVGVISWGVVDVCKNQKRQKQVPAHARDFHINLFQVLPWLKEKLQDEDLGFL
factor B, sequence (Q91132 23-649 partner limits assumed): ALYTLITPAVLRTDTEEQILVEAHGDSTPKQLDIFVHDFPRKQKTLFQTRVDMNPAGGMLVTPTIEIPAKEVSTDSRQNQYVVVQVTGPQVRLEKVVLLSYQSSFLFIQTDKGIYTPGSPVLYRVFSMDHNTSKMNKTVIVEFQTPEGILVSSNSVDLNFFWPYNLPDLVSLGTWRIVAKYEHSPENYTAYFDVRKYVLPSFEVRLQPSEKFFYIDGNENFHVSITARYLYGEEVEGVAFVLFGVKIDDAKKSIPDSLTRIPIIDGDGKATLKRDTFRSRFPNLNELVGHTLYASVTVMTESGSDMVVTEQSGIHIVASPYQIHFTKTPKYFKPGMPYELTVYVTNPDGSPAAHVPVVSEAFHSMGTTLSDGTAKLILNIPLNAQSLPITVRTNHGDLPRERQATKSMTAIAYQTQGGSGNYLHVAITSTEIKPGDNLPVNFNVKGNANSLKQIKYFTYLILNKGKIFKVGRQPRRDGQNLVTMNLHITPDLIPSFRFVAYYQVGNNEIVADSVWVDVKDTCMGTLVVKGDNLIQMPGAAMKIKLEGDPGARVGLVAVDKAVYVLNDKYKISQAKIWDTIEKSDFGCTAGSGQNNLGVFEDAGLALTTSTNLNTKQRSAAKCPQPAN
factor B, sequence (Q91132 733-984 partner limits assumed): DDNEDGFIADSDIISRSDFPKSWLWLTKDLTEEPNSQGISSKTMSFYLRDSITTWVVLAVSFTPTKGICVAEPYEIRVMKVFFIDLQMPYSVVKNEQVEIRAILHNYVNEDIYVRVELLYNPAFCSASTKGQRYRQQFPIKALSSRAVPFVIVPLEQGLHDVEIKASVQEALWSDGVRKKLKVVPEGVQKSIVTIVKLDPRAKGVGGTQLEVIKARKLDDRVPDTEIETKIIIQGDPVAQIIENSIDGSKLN
factor B, sequence (Q91132 1264-1642 partner limits assumed): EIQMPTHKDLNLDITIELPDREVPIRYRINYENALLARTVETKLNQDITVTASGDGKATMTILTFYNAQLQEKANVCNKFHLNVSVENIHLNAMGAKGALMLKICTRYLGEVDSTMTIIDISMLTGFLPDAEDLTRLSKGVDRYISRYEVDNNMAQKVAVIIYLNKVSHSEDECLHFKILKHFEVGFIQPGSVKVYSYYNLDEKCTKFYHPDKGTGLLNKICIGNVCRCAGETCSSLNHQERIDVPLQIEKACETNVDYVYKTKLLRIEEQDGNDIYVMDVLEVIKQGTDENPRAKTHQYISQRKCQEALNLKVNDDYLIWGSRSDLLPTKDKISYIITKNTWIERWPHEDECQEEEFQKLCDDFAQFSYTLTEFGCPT

Consider `Cc1cc(S(C)(=O)=O)c(C(N)c2nc3cc(C#N)ccc3[nH]2)c2cc[nH]c12` (single isomer, unassigned) [18-D (−), 2-(amino(7-methyl-5-(methylsulfonyl)-1H-indol-4-yl)methyl)-1H-benzo[d]imidazole-5-carbonitrile], for which the IC50 (in general, the concentration needed to halve the response being measured) was 150 nM.

As for `CCOc1cc(C)c2[nH]ccc2c1C(O)(c1nc2cc(C#N)ccc2[nH]1)C(F)(F)F` (single isomer, unassigned) [33-C b) (tr = 3 min), 2-(1-(5-ethoxy-7-methyl-1H-indol-4-yl)-2,2,2-trifluoro-1-hydroxyethyl)-1H-benzo[d]imidazole-5-carbonitrile], the IC50 came out at 490 nM. The figure for `CCOc1cc(C)c2[nH]ccc2c1C(O)(c1nc2cc(C#N)ccc2[nH]1)C(F)(F)F` (single isomer, unassigned) [33-C b) (tr = 5.1 min), 2-(1-(5-ethoxy-7-methyl-1H-indol-4-yl)-2,2,2-trifluoro-1-hydroxyethyl)-1H-benzo[d]imidazole-5-carbonitrile] is 5380 nM. The figure for `COc1cc(C)c2[nH]ccc2c1C(N)c1nc2cc(C#N)ccc2[nH]1` (single isomer, unassigned) [39-C b) (tr = 24.1 min), (−) or (+)-2-(amino(5-methoxy-7-methyl-1H-indol-4-yl)methyl)-1H-benzo[d]imidazole-5-carbonitrile] is 8 nM. Next, `COc1cc(C)c2[nH]ccc2c1C(N)c1nc2cc(C#N)ccc2[nH]1` (single isomer, unassigned) [39-C b) (tr = 30.6 min), (+) or (−)-2-(amino(5-methoxy-7-methyl-1H-indol-4-yl)methyl)-1H-benzo[d]imidazole-5-carbonitrile]: 190 nM. Regarding `Cc1cc(Br)c(C(C)(O)c2nc3cc(C#N)ccc3[nH]2)c2cc[nH]c12` (single isomer, unassigned) [79-F b) (tr = 2.2 min), (+) or (−)-2-(1-(5-bromo-7-methyl-1H-indol-4-yl)-1-hydroxyethyl)-1H-benzo[d]imidazole-5-carbonitrile], the IC50 was determined as 60 nM.

In the case of `Cc1cc(Br)c(C(C)(O)c2nc3cc(C#N)ccc3[nH]2)c2cc[nH]c12` (single isomer, unassigned) [79-F b) (tr = 3.8 min), (−) or (+)-2-(1-(5-bromo-7-methyl-1H-indol-4-yl)-1-hydroxyethyl)-1H-benzo[d]imidazole-5-carbonitrile], the IC50 is 270 nM. `Cc1cc(C)c2[nH]cc3c2c1C(O)(c1nc2cc(C#N)ccc2[nH]1)CC3` (single isomer, unassigned) [93-F b) (tr = 7.2 min), (+) or (−)-2-(5-hydroxy-6,8-dimethyl-1,3,4,5-tetrahydrobenzo[cd]indol-5-yl)-1H-benzo[d]imidazole-5-carbonitrile]: the IC50 was found to be 33800 nM. As to `Cc1cc(C)c2[nH]cc3c2c1C(O)(c1nc2cc(C#N)ccc2[nH]1)CC3` (single isomer, unassigned) [93-F b) (tr = 10.2 min), (−) or (+)-2-(5-hydroxy-6,8-dimethyl-1,3,4,5-tetrahydrobenzo[cd]indol-5-yl)-1H-benzo[d]imidazole-5-carbonitrile], the IC50 was 950 nM. The figure for `CCc1cc(C)c2[nH]cc3c2c1C(O)(c1nc2cc(C#N)ccc2[nH]1)CC3` (single isomer, unassigned) [94 b) (tr = 4.5 min), (+) or (−)-2-(6-ethyl-5-hydroxy-8-methyl-1,3,4,5-tetrahydrobenzo[cd]indol-5-yl)-1H-benzo[d]imidazole-5-carbonitrile] is 400 nM; for `CCc1cc(C)c2[nH]cc3c2c1C(O)(c1nc2cc(C#N)ccc2[nH]1)CC3` (single isomer, unassigned) [94 b) (tr = 6.3 min), (−) or (+)-2-(6-ethyl-5-hydroxy-8-methyl-1,3,4,5-tetrahydrobenzo[cd]indol-5-yl)-1H-benzo[d]imidazole-5-carbonitrile] it is 1590 nM; for `Cc1cc(C(C)C)c(C(N)c2nc3cc(C#N)ccc3[nH]2)c2cc[nH]c12` (single isomer, unassigned) [97 b) (tr = 10.5 min), (+) or (−)-2-(amino(5-isopropyl-7-methyl-1H-indol-4-yl)methyl)-1H-benzo[d]imidazole-5-carbonitrile] it is 3810 nM. Turning to `Cc1cc(C(C)C)c(C(N)c2nc3cc(C#N)ccc3[nH]2)c2cc[nH]c12` (single isomer, unassigned) [97 b) (tr = 19.4 min), (−) or (+)-2-(amino(5-isopropyl-7-methyl-1H-indol-4-yl)methyl)-1H-benzo[d]imidazole-5-carbonitrile], the IC50 stood at 70 nM. Next, `Cc1cc(C)c2[nH]cc(-c3ccccc3)c2c1C(O)c1nc2cc(C#N)ccc2[nH]1` (single isomer, unassigned) [118-C b) (tr = 4.6 min), (+)- or (−)-2-((5,7-dimethyl-3-phenyl-1H-indol-4-yl)(hydroxy)methyl)-1H-benzo[d]imidazole-5-carbonitrile]: 30 nM. The figure for `Cc1cc(C)c2[nH]cc(-c3ccccc3)c2c1C(O)c1nc2cc(C#N)ccc2[nH]1` (single isomer, unassigned) [118-C b) (tr = 7.9 min), (−) or (+)-2-((5,7-dimethyl-3-phenyl-1H-indol-4-yl)(hydroxy)methyl)-1H-benzo[d]imidazole-5-carbonitrile] is 1750 nM; for `Cc1cc(C)c2[nH]cc(-c3cnn(C)c3)c2c1C(O)c1nc2cc(C#N)ccc2[nH]1` (single isomer, unassigned) [119 b) (tr = 1.54 min), (+)- or (−)-2-((5,7-dimethyl-3-(1-methyl-1H-pyrazol-4-yl)-1H-indol-4-yl)(hydroxy)methyl)-1H-benzo[d]imidazole-5-carbonitrile] it is 130 nM. Next, `Cc1cc(C)c2[nH]cc(-c3cnn(C)c3)c2c1C(O)c1nc2cc(C#N)ccc2[nH]1` (single isomer, unassigned) [119 b) (tr = 2.35 min), (−) or (+)-2-((5,7-dimethyl-3-(1-methyl-1H-pyrazol-4-yl)-1H-indol-4-yl)(hydroxy)methyl)-1H-benzo[d]imidazole-5-carbonitrile]: 12600 nM; `Cc1cc(C)c2[nH]cc(-c3cccnc3)c2c1C(O)c1nc2cc(C#N)ccc2[nH]1` (single isomer, unassigned) [120 b) (tr = 2.25 min), (+)- or (−)-2-((5,7-dimethyl-3-(pyridin-3-yl)-1H-indol-4-yl)(hydroxy)methyl)-1H-benzo[d]imidazole-5-carbonitrile]: 120 nM.

On to `Cc1cc(C)c2[nH]cc(-c3cccnc3)c2c1C(O)c1nc2cc(C#N)ccc2[nH]1` (single isomer, unassigned) [120 b) (tr = 3.20 min), (−) or (+)-2-((5,7-dimethyl-3-(pyridin-3-yl)-1H-indol-4-yl)(hydroxy)methyl)-1H-benzo[d]imidazole-5-carbonitrile], for which the IC50 came out at 29000 nM.

`Cc1cc(OC(F)F)c(C(C)(O)c2nc3cc(C#N)ccc3[nH]2)c2c(Cl)c[nH]c12` (single isomer, unassigned) [Example 7, (+) or (−)-2-(1-(3-chloro-5-(difluoromethoxy)-7-methyl-1H-indol-4-yl)-1-hydroxyethyl)-1H-benzo[d]imidazole-5-carbonitrile]: the IC50 was found to be 4240 nM. The figure for `COc1cc(C)c2[nH]cc(Cl)c2c1C(C)(O)c1nc2cc(C#N)ccc2[nH]1` (single isomer, unassigned) [Example 29-A, (−) or (+)-2-(1-(3-Chloro-5-methoxy-7-methyl-1H-indol-4-yl)-1-hydroxyethyl)-1H-benzo[d]imidazole-5-carbonitrile] is 2030 nM; for `COc1cc(C)c2[nH]cc(Cl)c2c1C(C)(O)c1nc2cc(C#N)ccc2[nH]1` (single isomer, unassigned) [Example 29-B, (+) or (−)-2-(1-(3-chloro-5-methoxy-7-methyl-1H-indol-4-yl)-1-hydroxyethyl)-1H-benzo[d]imidazole-5-carbonitrile] it is 2570 nM.

Take `Cc1cc(OC(F)F)c(C(O)c2nc3cc(C#N)ccc3[nH]2)c2cc[nH]c12` (single isomer, unassigned; (+)) [3-B b) (+), (+)-2-((5-(difluoromethoxy)-7-methyl-1H-indol-4-yl)(hydroxy)methyl)-1H-benzo[d]imidazole-5-carbonitrile]: the IC50 was 820 nM.

For the compound `Cc1cc(OC(F)F)c(C(C)(N)c2nc3cc(C#N)ccc3[nH]2)c2cc[nH]c12` (single isomer, unassigned; (+)) [5-E b) (+), (+)-2-(1-amino-1-(5-(difluoromethoxy)-7-methyl-1H-indol-4-yl)ethyl)-1H-benzo[d]imidazole-5-carbonitrile], the IC50 is 420 nM. `COC(C)(c1nc2cc(C#N)ccc2[nH]1)c1c(OC(F)F)cc(C)c2[nH]ccc12` (single isomer, unassigned; (+)) [8-B b) (+), (+)-2-(1-(5-(difluoromethoxy)-7-methyl-1H-indol-4-yl)-1-methoxyethyl)-1H-benzo[d]imidazole-5-carbonitrile]: the IC50 was 10 nM. The figure for `Cc1cc(S(C)(=O)=O)c(C(C)(N)c2nc3cc(C#N)ccc3[nH]2)c2cc[nH]c12` (single isomer, unassigned; (+)) [13-E b) (+), (+)-2-(1-Amino-1-(7-methyl-5-(methylsulfonyl)-1H-indol-4-yl)ethyl)-1H-benzo[d]imidazole-5-carbonitrile] is 250 nM.

Consider `Cc1cc(S(C)(=O)=O)c(C(O)(c2nc3cc(C#N)ccc3[nH]2)C(F)(F)F)c2cc[nH]c12` (single isomer, unassigned; (+)) [14-D b) (+), (+)-2-(2,2,2-trifluoro-1-hydroxy-1-(7-methyl-5-(methylsulfonyl)-1H-indol-4-yl)ethyl)-1H-benzo[d]imidazole-5-carbonitrile], for which the IC50 was found to be 8410 nM.
